Test results: patent US20150071974A1, “COMPOUNDS WHICH INHIBIT NEURONAL EXOCYTOSIS” (LUBRIZOL ADVANCED MATERIALS, INC., priority 2012, published 2015)

System: human neuroblastoma cell line
Test: Release of noradrenaline induced by TPA/Ionomycin in a neuroblastoma cell line, quantified by ELISA
Assay type: cell-based
Details: TPA/ION control = 100.00
Protocol: Quantification of the Release of Noradrenaline Induced by TPA/Ionomycin in a Neuroblastoma Cell Line by ELISA
The induction of the release of noradrenaline with TPA (12-O-tetradecanoylphorbol-13-acetate)/lonomycin enables direct measurement of neuronal exocytosis. For the study of the inhibitory effect of the compounds of the invention on the release of noradrenaline, cells of a human neuroblastoma cell line were pre-incubated (1×10^6 cells/well) for 60 minutes with the compound of the invention (1 μM, 10 μM, 100 μM, 500 μM or 1 mM compounds), and afterward the release of noradrenaline was induced. The release of the noradrenaline neurotransmitter was induced by an 8 minute pre-treatment with a solution of 12-O-tetradecanoylphorbol-13-acetate (TPA) 100 nM, which mobilized the intracellular vesicles which contained the neurotransmitter; followed by a 5 minute incubation with TPA/Ionomycin (100 nM/10 μM), which induced the release of the neurotransmitter contained in these vesicles. […] For this, absorbance at 405 nm was measured in Thermo Scientific Multiskan Ascent equipment.
The blocking of the SNARE complex by the compounds of the invention lead to an inhibition of neuronal exocytosis and therefore, a decrease in the levels of released noradrenaline (Table 6).

Substance | % RELEASED NORADRENALINE Average (dose 10 μM) [%] | % RELEASED NORADRENALINE Average (dose 100 μM) [%] | % RELEASED NORADRENALINE Average (dose 1000 μM) [%]
Ac-QQLENIMDN-NH2 [Ac-SEQ ID NO: 51-NH2] | 81.13 | 101.40 | 35.37
Ac-HQEHRKMD-NH2 [Ac-SEQ ID NO: 5-NH2] | 85.68 | 81.50 | 51.45
Ac-QNLEHIMDQ-NH2 [Ac-SEQ ID NO: 62-NH2] | 77.76 | 82.72 | 63.99
